Source: the NIST ThermoML archive (doi:10.1016/j.tca.2009.10.017)
Where “and” joins values, the source holds several entries; their conditions need not be identical. Equal values may be shown once. Numbers after ± are expanded uncertainties.

Clc1c(Cl)c(Cl)c(Cl)c(Cl)c1Cl [hexachlorobenzene]
vapor or sublimation pressure, Crystal
Conditions	isothermal thermogravimetry	non-isothermal thermogravimetry
359.7 K	0.002 ± 0.001 kPa	–
360.2 K	0.003 ± 0.001 kPa	–
361.6 K	0.003 ± 0.001 kPa	–
362.5 K	0.003 ± 0.001 kPa	–
363.6 K	0.004 ± 0.001 kPa	–
364.4 K	0.003 ± 0.001 kPa	–
364.5 K	0.004 ± 0.001 kPa	–
365.4 K	0.004 ± 0.001 kPa	–
365.5 K	0.004 ± 0.001 kPa	–
367.4 K	0.005 ± 0.001 kPa	–
368 K	0.005 ± 0.001 kPa	–
369.5 K	0.005 ± 0.001 kPa	–
370.3 K	0.005 ± 0.001 kPa	–
371 K	0.006 ± 0.001 kPa	–
371.5 K	0.006 ± 0.001 kPa and 0.005 ± 0.001 kPa	–
374.1 K	0.007 ± 0.001 kPa	–
377.1 K	0.008 ± 0.001 kPa	–
378.1 K	0.008 ± 0.001 kPa	–
378.2 K	0.008 ± 0.001 kPa	–
381.4 K	0.012 ± 0.001 kPa and 0.011 ± 0.001 kPa	–
382.3 K	0.012 ± 0.001 kPa	–
382.4 K	0.011 ± 0.001 kPa	–
383.1 K	0.012 ± 0.001 kPa	–
384.4 K	0.014 ± 0.001 kPa	–
385.8 K	0.015 ± 0.001 kPa	–
386.2 K	0.015 ± 0.001 kPa	–
386.6 K	0.013 ± 0.001 kPa	–
388.5 K	0.016 ± 0.001 kPa	–
392.7 K	0.021 ± 0.001 kPa	–
393.3 K	0.024 ± 0.001 kPa	–
396.3 K	0.026 ± 0.001 kPa	–
396.7 K	0.026 ± 0.001 kPa	–
397.5 K	–	0.038 ± 0.002 kPa
399.6 K	0.031 ± 0.002 kPa	–
400.4 K	–	0.048 ± 0.002 kPa
400.6 K	0.038 ± 0.002 kPa	–
400.8 K	–	0.041 ± 0.002 kPa
401.2 K	–	0.048 ± 0.002 kPa
402 K	–	0.047 ± 0.002 kPa
402.8 K	–	0.057 ± 0.003 kPa
403.2 K	0.044 ± 0.002 kPa	–
403.6 K	–	0.05 ± 0.003 kPa
404.1 K	–	0.061 ± 0.003 kPa
404.4 K	0.043 ± 0.002 kPa	–
404.5 K	–	0.051 ± 0.003 kPa
404.9 K	–	0.058 ± 0.003 kPa
405.3 K	–	0.053 ± 0.003 kPa
405.8 K	–	0.063 ± 0.003 kPa
406.1 K	–	0.052 ± 0.003 kPa
406.5 K	–	0.06 ± 0.003 kPa
407 K	–	0.064 ± 0.003 kPa
407.4 K	–	0.061 ± 0.003 kPa
407.8 K	–	0.064 ± 0.003 kPa
408.2 K	–	0.07 ± 0.004 kPa
408.3 K	0.057 ± 0.003 kPa	–
408.6 K	–	0.066 ± 0.003 kPa
409 K	–	0.078 ± 0.004 kPa
409.4 K	–	0.071 ± 0.004 kPa
409.8 K	–	0.079 ± 0.004 kPa
410.2 K	–	0.076 ± 0.004 kPa
410.6 K	–	0.073 ± 0.004 kPa
411 K	–	0.074 ± 0.004 kPa
411.4 K	–	0.089 ± 0.004 kPa
411.9 K	–	0.069 ± 0.004 kPa
412.3 K	0.066 ± 0.003 kPa	0.078 ± 0.004 kPa
412.7 K	–	0.084 ± 0.004 kPa
413.2 K	–	0.083 ± 0.004 kPa
413.6 K	–	0.085 ± 0.004 kPa
414 K	–	0.088 ± 0.004 kPa
414.4 K	–	0.093 ± 0.005 kPa
414.9 K	–	0.093 ± 0.005 kPa
415.3 K	–	0.089 ± 0.004 kPa
415.7 K	–	0.101 ± 0.005 kPa
416.1 K	–	0.094 ± 0.005 kPa
416.5 K	–	0.101 ± 0.005 kPa
417 K	–	0.101 ± 0.005 kPa
417.4 K	–	0.11 ± 0.006 kPa
417.8 K	–	0.118 ± 0.006 kPa
418.2 K	–	0.112 ± 0.006 kPa
418.6 K	–	0.113 ± 0.006 kPa
419.1 K	–	0.129 ± 0.006 kPa
419.5 K	–	0.131 ± 0.007 kPa
419.9 K	–	0.118 ± 0.006 kPa
420.3 K	–	0.134 ± 0.007 kPa
420.7 K	–	0.134 ± 0.007 kPa
421.1 K	–	0.128 ± 0.006 kPa
421.5 K	–	0.131 ± 0.007 kPa
421.9 K	–	0.144 ± 0.007 kPa
422.3 K	–	0.144 ± 0.007 kPa
422.8 K	–	0.143 ± 0.007 kPa
423.2 K	–	0.159 ± 0.008 kPa
423.6 K	–	0.146 ± 0.007 kPa
424 K	–	0.149 ± 0.007 kPa
424.4 K	–	0.152 ± 0.008 kPa
424.8 K	–	0.169 ± 0.008 kPa
425.7 K	–	0.173 ± 0.009 kPa

Cl[C@H]1[C@H](Cl)[C@@H](Cl)[C@@H](Cl)[C@H](Cl)[C@H]1Cl [γ-1,2,3,4,5,6-hexachlorocyclohexane]
vapor or sublimation pressure
Conditions	Crystal	Liquid
347.1 K, isothermal thermogravimetry	0.0017 ± 0.0001 kPa	–
349.8 K, isothermal thermogravimetry	0.0019 ± 0.0001 kPa	–
349.9 K, isothermal thermogravimetry	0.002 ± 0.0001 kPa	–
351.9 K, isothermal thermogravimetry	0.0025 ± 0.0001 kPa	–
352 K, isothermal thermogravimetry	0.0027 ± 0.0002 kPa	–
354.4 K, isothermal thermogravimetry	0.0034 ± 0.0002 kPa	–
355 K, isothermal thermogravimetry	0.0031 ± 0.0002 kPa	–
356.2 K, isothermal thermogravimetry	0.0039 ± 0.0002 kPa	–
356.4 K, isothermal thermogravimetry	0.0042 ± 0.0002 kPa	–
357.8 K, isothermal thermogravimetry	0.004 ± 0.0002 kPa	–
359.3 K, isothermal thermogravimetry	0.005 ± 0.0003 kPa	–
361.5 K, isothermal thermogravimetry	0.0052 ± 0.0003 kPa	–
363.2 K, isothermal thermogravimetry	0.006 ± 0.0003 kPa	–
364 K, isothermal thermogravimetry	0.0058 ± 0.0003 kPa	–
364.9 K, isothermal thermogravimetry	0.0082 ± 0.0004 kPa	–
367.2 K, isothermal thermogravimetry	0.0075 ± 0.0004 kPa	–
368.1 K, isothermal thermogravimetry	0.0104 ± 0.0005 kPa	–
371.1 K, isothermal thermogravimetry	0.0122 ± 0.0006 kPa	–
372.9 K, isothermal thermogravimetry	0.0122 ± 0.0006 kPa	–
374.3 K, isothermal thermogravimetry	0.0169 ± 0.0008 kPa	–
376.2 K, isothermal thermogravimetry	0.017 ± 0.0009 kPa	–
377.4 K, isothermal thermogravimetry	0.0225 ± 0.0011 kPa	–
377.5 K, non-isothermal thermogravimetry	0.024 ± 0.001 kPa	0.024 ± 0.001 kPa
378.3 K, non-isothermal thermogravimetry	0.026 ± 0.001 kPa	0.026 ± 0.001 kPa
379.1 K, non-isothermal thermogravimetry	0.027 ± 0.001 kPa	0.027 ± 0.001 kPa
379.3 K, isothermal thermogravimetry	0.0228 ± 0.0011 kPa	–
379.9 K, non-isothermal thermogravimetry	0.028 ± 0.002 kPa	0.028 ± 0.002 kPa
380.7 K, isothermal thermogravimetry	0.0294 ± 0.0015 kPa	–
380.7 K, non-isothermal thermogravimetry	0.03 ± 0.002 kPa	0.03 ± 0.002 kPa
381.5 K, non-isothermal thermogravimetry	0.032 ± 0.002 kPa	0.032 ± 0.002 kPa
381.8 K, isothermal thermogravimetry	0.0277 ± 0.0014 kPa	–
382.4 K, non-isothermal thermogravimetry	0.034 ± 0.002 kPa	0.034 ± 0.002 kPa
383.2 K, non-isothermal thermogravimetry	0.037 ± 0.002 kPa	0.037 ± 0.002 kPa
384 K, isothermal thermogravimetry	0.0365 ± 0.0018 kPa	–
384 K, non-isothermal thermogravimetry	0.038 ± 0.002 kPa	0.038 ± 0.002 kPa
384.8 K, non-isothermal thermogravimetry	0.041 ± 0.002 kPa	0.041 ± 0.002 kPa
386.4 K, non-isothermal thermogravimetry	–	0.044 ± 0.002 kPa
387 K, non-isothermal thermogravimetry	–	0.049 ± 0.003 kPa
387.4 K, isothermal thermogravimetry	–	0.045 ± 0.002 kPa
387.6 K, non-isothermal thermogravimetry	–	0.044 ± 0.002 kPa
387.9 K, non-isothermal thermogravimetry	–	0.046 ± 0.002 kPa
388.2 K, non-isothermal thermogravimetry	–	0.044 ± 0.002 kPa
388.6 K, non-isothermal thermogravimetry	–	0.043 ± 0.002 kPa
389.2 K, isothermal thermogravimetry	–	0.049 ± 0.003 kPa
389.9 K, isothermal thermogravimetry	–	0.055 ± 0.003 kPa
390.5 K, isothermal thermogravimetry	–	0.053 ± 0.003 kPa
390.8 K, non-isothermal thermogravimetry	–	0.051 ± 0.003 kPa
392.1 K, isothermal thermogravimetry	–	0.06 ± 0.003 kPa
392.1 K, non-isothermal thermogravimetry	–	0.065 ± 0.003 kPa
393.2 K, non-isothermal thermogravimetry	–	0.06 ± 0.003 kPa
393.5 K, isothermal thermogravimetry	–	0.07 ± 0.004 kPa
393.6 K, isothermal thermogravimetry	–	0.065 ± 0.003 kPa
394.1 K, non-isothermal thermogravimetry	–	0.067 ± 0.003 kPa
395 K, non-isothermal thermogravimetry	–	0.07 ± 0.004 kPa
395.9 K, non-isothermal thermogravimetry	–	0.079 ± 0.004 kPa
396.6 K, isothermal thermogravimetry	–	0.08 ± 0.004 kPa
396.7 K, non-isothermal thermogravimetry	–	0.085 ± 0.004 kPa
397.6 K, non-isothermal thermogravimetry	–	0.074 ± 0.004 kPa
398.5 K, non-isothermal thermogravimetry	–	0.074 ± 0.004 kPa
398.7 K, isothermal thermogravimetry	–	0.088 ± 0.004 kPa
398.9 K, isothermal thermogravimetry	–	0.086 ± 0.004 kPa
399 K, isothermal thermogravimetry	–	0.093 ± 0.005 kPa
399.9 K, isothermal thermogravimetry	–	0.093 ± 0.005 kPa
400.2 K, non-isothermal thermogravimetry	–	0.088 ± 0.004 kPa
400.3 K, isothermal thermogravimetry	–	0.095 ± 0.005 kPa
401 K, non-isothermal thermogravimetry	–	0.1 ± 0.005 kPa
401.7 K, isothermal thermogravimetry	–	0.103 ± 0.005 kPa
401.9 K, non-isothermal thermogravimetry	–	0.109 ± 0.006 kPa
402 K, non-isothermal thermogravimetry	–	0.095 ± 0.006 kPa
402.8 K, non-isothermal thermogravimetry	–	0.106 ± 0.005 kPa
403.6 K, non-isothermal thermogravimetry	–	0.104 ± 0.005 kPa
403.7 K, isothermal thermogravimetry	–	0.114 ± 0.006 kPa and 0.111 ± 0.006 kPa
404.4 K, non-isothermal thermogravimetry	–	0.125 ± 0.006 kPa
405.3 K, non-isothermal thermogravimetry	–	0.131 ± 0.007 kPa
406.1 K, non-isothermal thermogravimetry	–	0.139 ± 0.007 kPa
406.5 K, isothermal thermogravimetry	–	0.122 ± 0.006 kPa
406.9 K, isothermal thermogravimetry	–	0.133 ± 0.007 kPa
406.9 K, non-isothermal thermogravimetry	–	0.119 ± 0.006 kPa
407.7 K, non-isothermal thermogravimetry	–	0.153 ± 0.008 kPa
408.5 K, non-isothermal thermogravimetry	–	0.142 ± 0.007 kPa
409.3 K, non-isothermal thermogravimetry	–	0.158 ± 0.008 kPa
410.2 K, non-isothermal thermogravimetry	–	0.148 ± 0.007 kPa
411 K, non-isothermal thermogravimetry	–	0.174 ± 0.009 kPa
411.8 K, non-isothermal thermogravimetry	–	0.168 ± 0.008 kPa
412.6 K, non-isothermal thermogravimetry	–	0.177 ± 0.009 kPa
413.4 K, non-isothermal thermogravimetry	–	0.174 ± 0.009 kPa
414.3 K, non-isothermal thermogravimetry	–	0.192 ± 0.01 kPa
415.1 K, non-isothermal thermogravimetry	–	0.202 ± 0.01 kPa
415.9 K, non-isothermal thermogravimetry	–	0.195 ± 0.01 kPa
416.8 K, non-isothermal thermogravimetry	–	0.211 ± 0.011 kPa
417.6 K, non-isothermal thermogravimetry	–	0.229 ± 0.011 kPa
418.4 K, non-isothermal thermogravimetry	–	0.248 ± 0.012 kPa
419.3 K, non-isothermal thermogravimetry	–	0.261 ± 0.013 kPa
420.1 K, non-isothermal thermogravimetry	–	0.257 ± 0.013 kPa
421 K, non-isothermal thermogravimetry	–	0.254 ± 0.013 kPa
421.8 K, non-isothermal thermogravimetry	–	0.267 ± 0.013 kPa
422.7 K, non-isothermal thermogravimetry	–	0.286 ± 0.014 kPa
423.6 K, non-isothermal thermogravimetry	–	0.306 ± 0.015 kPa
424.5 K, non-isothermal thermogravimetry	–	0.301 ± 0.015 kPa
425.4 K, non-isothermal thermogravimetry	–	0.347 ± 0.017 kPa
426.4 K, non-isothermal thermogravimetry	–	0.366 ± 0.018 kPa
426.8 K, non-isothermal thermogravimetry	–	0.371 ± 0.019 kPa
427.5 K, non-isothermal thermogravimetry	–	0.405 ± 0.02 kPa
428.6 K, non-isothermal thermogravimetry	–	0.367 ± 0.021 kPa
428.7 K, non-isothermal thermogravimetry	–	0.416 ± 0.023 kPa
